Series [1] has as its system MDA-MB-231 breast cancer cells. Further details: method as in doi:10.1021/acsomega.8b02849, PMID 31241925. To be noted: positive control; ref [44], [45]; cited from earlier work.
In series [2] the test system is MCF-7 breast cancer cells. Details: method as in doi:10.1021/acsomega.8b02849, PMID 31241925. To be noted: positive control; ref [44], [45]; cited from earlier work.
The test system of series [3] is normal human fibroblasts (HDF). Further details: method as in doi:10.1021/acsomega.8b02849, PMID 31241925. To be noted: positive control; ref [44], [45]; cited from earlier work.
In series [4] the test system is MDA-MB-231 breast cancer cells. As to the kind of experiment: MTT cytotoxicity assay, MDA-MB-231 cells. In kind it is cell-based, human. The following applies: 24 h incubation, MTT, average of at least three experiments (±SD). On the procedure: (§1) The MDA-MB-231 and MCF-7 human breast cancer cells were purchased from ATCC. The MDA-MB-231 and MCF-7 cells were grown in Dulbecco's modified Eagles' medium (DMEM high glucose) (Capricorn Scientific) at 37°C in 5% CO2 supplemented with 10% fetal bovine serum (Capricorn Scientific). HDF cells were purchased from Merck and were grown in the fibroblast growth medium. All cells were adherent in monolayers and, upon confluence, were washed with phosphate buffer saline (PBS) and harvested by digestion with trypsin-EDTA 0.05% (v/v). The cells were suspended and transferred into new, sterile, culture flasks for maintenance or seeded in sterile test microplates for different assays. All cells were manipulated under aseptic conditions in a flow chamber.
(§2) The cells were adherent in monolayers and, upon confluence, were harvested by digestion with trypsin. The cytotoxicity of the complexes against the tumour cells was assessed using the colorimetric assay MTT […], which evaluates the metabolic activity of viable cells. This assay measures the conversion of yellow tetrazolium into purple formazan by an active mitochondrial dehydrogenase in living cells. For this purpose, the cells (10–20 × 10^3 in 200 μL of the medium) were seeded into 96-well plates and incubated in a 5% CO2 incubator at 37°C. The cells were settled for 24 h followed by the addition of a dilution series of the complexes in a medium (200 μL). The complexes were first solubilized in 100% DMSO, given a 10 mM stock solution, and then in a medium within the concentration range of 0.1–100 µM. […] After 24 h of incubation, the treatment solutions were removed by aspiration, and MTT solution (200 μL, 0.5 mg·mL^−1 in PBS) was added to each well. After 3 h at 37°C/5% CO2, the solution was removed, and the purple formazan crystals formed inside the cells were dissolved in DMSO (200 μL) by thorough shaking. The cellular viability was evaluated by measuring the absorbance at 570 nm by using a microplate spectrophotometer. The IC50 values were obtained by dose-response curves using the GraphPad Prism software (vs. 5).
The MDA-MB-231 and MCF-7 human breast cancer cells were purchased from ATCC. MDA-MB-231 and MCF-7 cells were grown in Dulbecco’s modified Eagles’s medium (DMEM high glucose) (Capricorn Scientific) at 37 °C in 5% CO2 supplemented with 10% fetal bovine serum (Capricorn Scientific). All cells were adherent in monolayers and, upon confluence, were washed with phosphate buffer saline (PBS) and harvested by digestion with Trypsin-EDTA 0.05% (v/v). The cells were suspended and transferred into new, sterile, culture flasks, for maintenance or seeded in sterile test microplates for different assays. All cells were manipulated under aseptic conditions in a flow chamber.
The cells were adherent in monolayers and, upon confluency, were harvested by digestion with trypsin. The cytotoxicity of the complexes against the tumour cells was assessed using the colorimetric assay MTT […], which evaluate the metabolic activity of viable cells. This assay measures the conversion of the yellow tetrazolium into purple formazan by an active mitochondrial dehydrogenase in living cells. For this purpose, cells (10-20 × 10^3 in 200 μL of medium) were seeded into 96-well plates and incubated in a 5% CO2 incubator at 37 °C. The cells were settled for 24 h followed by the addition of a dilution series of the complexes in medium (200 μL). The complexes were first solubilized in 100% DMSO, given a 10 mM stock solution, and then in medium within the concentration range of 0.1–100 µM. […] After 24 h of incubation, the treatment solutions were removed by aspiration, and MTT solution (200 μL, 0.5 mg·mL^-1 in PBS) was added to each well. After 3 h at 37 °C/5% CO2, the solution was removed, and the purple formazan crystals formed inside the cells were dissolved in DMSO (200 μL) by thorough shaking. […]

The subject of series [5] is MCF-7 breast cancer cells. As to the kind of experiment: MTT cytotoxicity assay, MCF-7 cells. In kind it is cell-based, human. To be noted: 24 h incubation, average of at least three experiments (±SD). On the procedure: as §1
The cells were adherent in monolayers and, upon confluence, were harvested by digestion with trypsin. The cytotoxicity of the complexes against the tumour cells was assessed using the colorimetric assay MTT […], which evaluates the metabolic activity of viable cells. This assay measures the conversion of yellow tetrazolium into purple formazan by an active mitochondrial dehydrogenase in living cells. For this purpose, the cells (10–20 × 10^3 in 200 μL of the medium) were seeded into 96-well plates and incubated in a 5% CO2 incubator at 37°C. The cells were settled for 24 h followed by the addition of a dilution series of the complexes in a medium (200 μL). The complexes were first solubilized in 100% DMSO, given a 10 mM stock solution, and then in a medium within the concentration range of 0.1–100 µM. […] The cellular viability was evaluated by measuring the absorbance at 570 nm by using a microplate spectrophotometer. […]
The cells were adherent in monolayers and, upon confluency, were harvested by digestion with trypsin. The cytotoxicity of the complexes against the tumour cells was assessed using the colorimetric assay MTT […], which evaluate the metabolic activity of viable cells. […]
On the technique in general: Tetrazolium dyes change colour on reduction, which living cells bring about.

Series [6] relates to normal human fibroblasts (HDF). As to the kind of experiment: MTT cytotoxicity assay, normal human dermal fibroblasts. The following applies: for IC50: 24 h incubation, MTT, normal human fibroblasts; for Fold less cytotoxic for fibroblasts (HDF) than for MCF-7 cells: selectivity HDF vs MCF-7; for Fold less cytotoxic for fibroblasts (HDF) than for MDA-MB-231 cells: selectivity HDF vs MDA-MB-231. The class given is cell-based. On the procedure:
as §1, §2

In series [7] the target is human serum albumin (HSA) (Homo sapiens, UniProt P02768). As to the kind of experiment: Binding to human serum albumin by steady-state and time-resolved Trp214 fluorescence. To be noted: for Emission intensity of Trp214 relative to value in the absence of compound: 20 µM compound (1:4 HSA:compound), 24 h, λem 340 nm; for Type of quenching: HSA-Trp214 fluorescence; for Spectral shift of Trp214 emission: steady-state emission, 24 h incubation; for Effect on amplitude-weighted mean fluorescence lifetime of HSA-Trp214: time-resolved fluorescence, λem 350 nm. On the procedure:
The stock solutions of HSA were freshly prepared for each experiment by gently dissolving protein in PBS pH 7.4 (tablets from Fisher) for 1 hour to allow protein to completely hydrate. The concentration of the protein in the stock solutions was determined by spectrophotometry using the molar absorption coefficient at 280 nm ε280(HSA) = 36,850 M^−1·cm^−1 [38].
In each essay, all spectroscopic measurements were carried out on individually prepared samples to ensure the same preincubation time at (37.0 ± 0.1)°C, the same % of DMSO in the final samples, and the same exposure to excitation light and to avoid the need for dilution corrections. Moreover, for a direct titration protocol, a highly concentrated stock solution of the compounds in the buffer would be required, which would raise solubility issues. Dimethylsulfoxide (DMSO, from Fisher) was used to prepare concentrated stock solutions of each complex, followed by appropriate dilution to obtain the desired concentration. The DMSO content was kept at 2% (v/v) in PBS pH 7.4 in all samples. Dilutions were carried out immediately before sample preparation.
Fluorescence measurements were performed at 25.0 ± 0.1°C. The final protein concentration in the individually prepared samples (3.72 to 5 μM) was kept constant in each assay, and the complex concentration was varied to obtain desired HSA: Ru-complex molar ratios ranging from 1 : 0.25 to 1 : 10. A control sample containing the same amount of protein and final DMSO content and with no complex was also prepared for each experiment. Appropriate blank samples with no protein but with the same complex concentrations were prepared as well for background correction.
The steady-state fluorescence intensity was measured with excitation at 295 nm, and emission spectra were collected with bandwidths of 4 nm for both excitation and emission. For Stern–Volmer plots, the fluorescence intensity with emission at 340 nm was selected because it is near the maximum emission wavelength (so the sensitivity is close to maximum), but it is further to red in relation to the water Raman scattering peak. These values were corrected for the absorption and emission inner filter effects using the absorbance recorded for each sample at the excitation and emission wavelengths used for the steady-state quenching analysis. For time-resolved fluorescence measurements, the single-photon-counting technique was used with nanoLED N-280 (Horiba Jobin Yvon) as the pulsed excitation source (280 nm) and with emission collected at 350 nm (13 nm emission bandwidth), eliminating the contribution of the emission by tyrosine residues.
The experimental fluorescence intensity decays of HSA in buffer solution can be described by a sum of exponentials:(1) It=∑i=1npiexp−t/τi, where pi and τi are the pre-exponential factors and lifetime of component i, respectively. The amplitude or normalized pre-exponential of each lifetime component αi is pi/Σipi with Σiαi = 1. Fluorescence decays were analysed by an iterative deconvolution method using the TRFA Data Processor software (version 1.4; Minsk, Belarus), and the instrument response function was obtained using scattering by a colloidal suspension of silica (Ludox®, Sigma-Aldrich) diluted in water. Criteria for judging the quality of the fit were reduced χ^2 close to 1 and a random distribution of weighted residuals and residual autocorrelation.
To evaluate changes in the quantum yield by processes affecting the fluorescence lifetimes of HSA, the amplitude-weighted mean fluorescence lifetime ( τ¯ ) was calculated using the following equation:(2) τ¯=∑i=1nαiτi.
The stock solutions of HSA were freshly prepared for each experiment by gently dissolving the protein in PBS pH 7.4 (tablets from Fisher) for 1 hour to allow the protein to completely hydrate. The concentration of protein in the stock solutions was determined by spectrophotometry using the molar absorption coefficient at 280 nm ε280(HSA) = 36,850 M^−1 cm^−1.[8] […]

The values below come from PMC10555500, “Evaluation of the Antiproliferative Properties of CpRu Complexes Containing N-Methylated Triazaphosphaadamantane Derivatives” (Bioinorganic Chemistry and Applications, 2023).

One may read the IC50 as the concentration that inhibits the measured activity by half.

Where two headings read alike, the source gives them in different places. Some results are limits rather than exact numbers.

human serum albumin (HSA), sequence (P02768 25-609): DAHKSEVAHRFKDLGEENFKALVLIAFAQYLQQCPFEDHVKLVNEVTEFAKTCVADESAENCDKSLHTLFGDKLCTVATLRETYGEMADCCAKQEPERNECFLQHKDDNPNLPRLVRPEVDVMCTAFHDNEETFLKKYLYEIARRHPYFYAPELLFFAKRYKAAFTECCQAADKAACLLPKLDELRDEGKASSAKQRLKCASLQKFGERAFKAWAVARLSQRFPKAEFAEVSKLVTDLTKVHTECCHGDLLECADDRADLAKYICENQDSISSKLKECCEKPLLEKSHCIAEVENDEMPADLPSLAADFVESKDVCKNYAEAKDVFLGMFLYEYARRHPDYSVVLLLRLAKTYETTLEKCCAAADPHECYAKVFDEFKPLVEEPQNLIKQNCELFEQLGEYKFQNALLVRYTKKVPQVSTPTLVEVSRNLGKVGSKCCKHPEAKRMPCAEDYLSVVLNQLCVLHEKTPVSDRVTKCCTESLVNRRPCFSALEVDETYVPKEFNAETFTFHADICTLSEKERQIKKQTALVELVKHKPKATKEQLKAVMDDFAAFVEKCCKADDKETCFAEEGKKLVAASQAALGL

Consider `N.N.[Cl][Pt][Cl]` [Cisplatin, cis-[PtCl2(NH3)2]], for which the IC50 was greater than 100 µM in series [1], 38 ± 1.4 µM in series [2] and roughly 100 µM in series [3].

Consider `CN1CN2C[NH+](C)C[P]([Ru+2]([P](c3ccccc3)(c3ccccc3)c3ccccc3)[P](c3ccccc3)(c3ccccc3)c3ccccc3)(C1)C2.O=S(=O)([O-])C(F)(F)F.O=S(=O)([O-])C(F)(F)F.c1cc[cH-]c1` [Compound 9, [RuCp(HdmoPTA)(PPh3)2](CF3SO3)2], for which, in series [4], the IC50 came out at 0.86 ± 0.13 µM. In series [5], this compound yielded an IC50 of 0.48 ± 0.07 µM. In series [6], the midpoint of inhibition, the IC50, lay at 1.23 ± 0.32 µM; the “Fold less cytotoxic for fibroblasts (HDF) than for MCF-7 cells” value is recorded as 2-3 fold; the “Fold less cytotoxic for fibroblasts (HDF) than for MDA-MB-231 cells” value is reported as 1.5 fold. Also, in series [7], the “Emission intensity of Trp214 relative to value in the absence of compound” value is listed as “approximately 60%”, the Type of quenching entry is reported as “Static”, the “Spectral shift of Trp214 emission” value is reported as “do not induce any spectral shift” and the “Effect on amplitude-weighted mean fluorescence lifetime of HSA-Trp214” value is reported as “does not affect”.

For the compound `CN1CN2CN(C)C[P]([Ru+2]([P](c3ccccc3)(c3ccccc3)c3ccccc3)[P](c3ccccc3)(c3ccccc3)c3ccccc3)(C1)C2.O=S(=O)([O-])C(F)(F)F.c1cc[cH-]c1` [Compound 10, [RuCp(dmoPTA)(PPh3)2](CF3SO3)], the IC50 in series [4] stood at 0.84 ± 0.09 µM. Besides, the IC50 in series [5] is 0.4 ± 0.04 µM. For the same compound, in series [6], the IC50 was determined as 1.47 ± 0.4 µM, the “Fold less cytotoxic for fibroblasts (HDF) than for MCF-7 cells” value is listed as 2-3 fold and the “Fold less cytotoxic for fibroblasts (HDF) than for MDA-MB-231 cells” value was determined as 1.5 fold. For the same compound, in series [7], the “Emission intensity of Trp214 relative to value in the absence of compound” value is roughly 75%, the Type of quenching result is given as “Static”, the “Spectral shift of Trp214 emission” value was “do not induce any spectral shift” and the “Effect on amplitude-weighted mean fluorescence lifetime of HSA-Trp214” value was “does not affect”.
